Reference: patent publication US6242235A, “Polymerase stabilization by polyethoxylated amine surfactants” (priority 1999, dated 2001)

What was measured:
Taq polymerase [1] = biological target: T1, Taq polymerase (Thermus aquaticus, UniProt P19821); assay: Half-life of Taq polymerase activity at 95° C. in surfactant solutions (3H-TTP incorporation); type: biochemical; details: incubated at 95° C.; for estimated half-life of Taq polymerase: Example 2: 0.1% surfactant, control without surfactant less than 5 min; for Taq polymerase half life: Example 7: 0.005% surfactant, 2.5 U/100 μl, estimated graphically
Procedure: A 10× buffer was made with each of these surfactant solutions. The 10× buffer for each consisted of: 500 mM KCl, 100 mM Tris-HCl pH 9.0 (at 25° C.), 1% surfactant (made by a 1:10 dilution of the detergent solution described above into the buffer during formulation). As described in Example 1, the Taq polymerase used in these experiments was purified without exposure to any detergents. Each of these buffer solutions was used to formulate a Taq-surfactant solution as follows: […]
A control solution was made as indicated above, except that the 32 μl of 10× buffer without surfactant was used. The solutions were incubated at 95° C. and samples (10 μl) were removed and placed in a fresh tube, and kept on ice at 0, 5, 10, 30, 60, 90, and 120 min. The samples were then assayed for Taq polymerase activity.
Taq polymerase activity was determined by measuring the amount of tritiated deoxynucleotide base a sample of the enzyme could incorporate. The assay was performed as follows. Solutions of dATP, dCTP, dGTP and dTTP (Promega U120, U122, U121 and U123, respectively) were diluted to 2 mM final concentration (originally at 100 mM) using nanopure water. Tritiated nucleotide ^3 H-TTP was obtained from Amersham (TRK424, 250 μCi/250 μl). The template for incorporation was calf thymus DNA (Sigma, D-1501) dissolved in 10 mM Tris-HCl pH 7.3, 5 mM MgCl2 to a final concentration of 2.5 mg/ml. Prior to use, the DNA was treated with 1 μl of a 1:10 dilution of RQ1 DNAse (Promega M610) (dilution made using 10 mM Tris-HCl, 5 mM MgCl2) and incubated for 10 min at 37° C. followed by 30 min at 68° C. This was done to "activate" the DNA for incorporation. A 10× Taq assay buffer was made containing 500 mM Tris-HCl (pH 9.0 at 25° C.), 500 mM NaCl, and 100 mM MgCl2.
Time point samples (10 μl) were added to 40 μl of the reaction mix and then incubated at 74° C. for 10 min. After incubation, the solution was diluted with 500 μl of ice cold 10% TCA. The TCA solution was filtered through a GF/A filter. The tube was washed three times with 1 ml of 5% TCA and the wash was then filtered onto the same filter. The filter was then rinsed 3 times with 5% TCA and then rinsed with acetone. The filters were dried 10 min. with a heat lamp and then the radioactivity was counted. The percent of activity present at any time point was determined by dividing the net counts for the sample at that time point by the net counts of the 0 min sample for that enzyme solution and then multiplying by 100%. The percent activity of the solution was plotted versus time. The points were then connected by a smooth curve and the estimated half-life of the enzyme under the conditions chosen was estimated based on the point where the line crossed 50% activity.
In this example, the ability of ethoxylated amines to stabilize thermostable proteins at high temperatures was examined. Solutions of detergent-free Taq polymerase (2.5 U/100 μl of solution) containing 0.005% Tomah E-18-15, Tomah E-18-5, Tween 20, NP-40, and TRITON X-100 were produced as in Example 2. These solutions were incubated at 95° C. and samples were removed at 0, 10, 30, 60 and 120 min and analyzed as in Example 2. The half lives of the enzyme in the presence of these surfactants was estimated graphically. The solutions containing Tomah E-18-5, TRITON X-100 and NP-40 all had Taq polymerase half lives of about 8 min.

Taq polymerase [2] = biological target: T1, Taq polymerase; assay: PCR based assay for Taq polymerase stabilization by detergents (1.5 kb amplification product on agarose gel); type: biochemical; details: 2 μl Taq polymerase (10 U/μl)
Procedure: This Example describes the development of a PCR based assay for polymerase stabilization by detergents (i.e., surfactants). Conditions were defined in which the polymerase was incapable of producing a detectable amplification product in the absence of detergent, but could produce detectable amplification in the presence of a stabilizing detergent, such as Tween 20.
The following reaction mixture was assembled:
pGEM 1 uc (Part # E1541) and 25 mM MgCl2 (Part # M1902) were obtained from Promega Corp, Madison Wis. The 10× Taq buffer formulation was: 500 mM KCl, 100 mM Tris-Cl (pH 9.0 at 25° C.). The 10× Taq buffer was made by dissolving KCl and Trizma in nanopure water and adjusting the pH with concentrated hydrochloric acid. Nanopure water was made by autoclaving deionized water treated by a NANOPURE water system. The 2 mM dNTP mix was made by mixing 100 mM stocks of dATP, dCTP, dGTP, and dTTP (Promega U120, U122, U121 and U123, respectively) with nanopure water to produce a solution containing a 2 mM concentration of each nucleotide. The DNA sequences of the primers used were […] (SEQ ID NO: 1) and […] (SEQ ID NO 2).
One hundred microliters of the reaction mixture were placed into a 0.2 ml tube and 50 μl placed in five additional tubes. […]
The reaction products were analyzed by agarose gel electrophoresis. […]

[3] = McCutcheon's Volume 1: Emulsifiers and Detergents North American Edition, 1996; cited from earlier work

T1 sequence (P19821 whole entry): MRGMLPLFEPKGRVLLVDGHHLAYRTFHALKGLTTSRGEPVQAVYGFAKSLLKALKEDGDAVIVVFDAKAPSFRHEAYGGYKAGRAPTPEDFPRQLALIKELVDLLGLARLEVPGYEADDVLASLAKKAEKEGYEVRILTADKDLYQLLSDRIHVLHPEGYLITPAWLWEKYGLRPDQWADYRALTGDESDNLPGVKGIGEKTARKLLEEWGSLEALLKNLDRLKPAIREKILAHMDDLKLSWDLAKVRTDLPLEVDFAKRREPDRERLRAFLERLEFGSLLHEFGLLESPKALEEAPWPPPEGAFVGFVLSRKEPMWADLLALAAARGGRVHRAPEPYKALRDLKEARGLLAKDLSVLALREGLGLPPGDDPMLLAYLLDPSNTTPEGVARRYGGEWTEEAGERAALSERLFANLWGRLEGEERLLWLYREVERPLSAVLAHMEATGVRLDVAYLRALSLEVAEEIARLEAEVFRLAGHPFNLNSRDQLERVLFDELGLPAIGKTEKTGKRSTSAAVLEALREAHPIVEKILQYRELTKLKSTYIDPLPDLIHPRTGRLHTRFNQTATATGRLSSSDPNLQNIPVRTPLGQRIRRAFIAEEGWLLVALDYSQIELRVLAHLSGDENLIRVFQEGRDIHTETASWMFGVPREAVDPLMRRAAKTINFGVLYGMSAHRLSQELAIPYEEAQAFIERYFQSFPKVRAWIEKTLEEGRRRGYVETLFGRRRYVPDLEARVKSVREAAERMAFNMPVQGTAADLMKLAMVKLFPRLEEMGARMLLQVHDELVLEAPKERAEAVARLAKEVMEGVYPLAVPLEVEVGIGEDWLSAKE

Molecule | estimated half-life of Taq polymerase (Taq polymerase [1]) | Taq polymerase half life (Taq polymerase [1]) | other results
C[C@H](CCC(=O)NCCC[N+](C)(C)CCCS(=O)(=O)[O-])[C@H]1CC[C@H]2[C@@H]3[C@H](O)C[C@@H]4C[C@H](O)CC[C@]4(C)[C@H]3C[C@H](O)[C@]12C [Chaps] | approximately 5 min | – | –
C[C@H](CCC(=O)NCCC[N+](C)(C)CC(O)CS(=O)(=O)[O-])[C@H]1CC[C@H]2[C@@H]3[C@H](O)C[C@@H]4C[C@H](O)CC[C@]4(C)[C@H]3C[C@H](O)[C@]12C (some centres unmarked) [Chapso] | approximately 5 min | – | –
CCCCCCCCCC[N+](C)(C)CCCS(=O)(=O)[O-] [N-decyl-n,n-dimethyl-3-ammonium-1-propanesulfonate] | – | – | 1.5 kb DNA band (Taq polymerase [2]; Example 3, second set: 5 μl of 10% surfactant in 95 μl mix, no band without surfactant): failed to produce a visible 1.5 kb DNA fragment; 1.5 kb DNA band (Taq polymerase [2]; Example 3: 1 μl of 10% surfactant in 99 μl mix, weaker but visible band without surfactant): band intermediate in intensity
TRITON X-100 | approximately 40 min | about 8 min | HLB Index [3]: 13.5
ethoxylated alky phenol [NP-40] | – | about 8 min | –
